{
  "source": "patent US9757327B2",
  "about": "“Abutilon indicum extracts and methods of use” (Avon Products, Inc., priority 2013, dated 2017)",
  "tested_on": "dorsal forearm skin of healthy female Caucasian subjects",
  "experiment": "In vivo biopsy (histology after 3 week patch treatment)",
  "parameters": "species or system human",
  "settings": "3 weeks semi-occlusion patch, 2 mg/cm^2, extract 0.33% active, retinol 0.05% active",
  "protocol": "Healthy female Caucasian subjects aged 30-65, with skin type II or III and mild to moderate photo damage, were treated on the dorsal forearm for 3 weeks (3 consecutive rounds of 5×24 hour) under semi-occlusion patches. Test articles including active ingredients, vehicle controls, and retinol were applied in a randomized allocation on 6 sites on each forearm. The application dose was 2 mg/cm^2. After 3 week treatment, a 2 mm punch biopsy was obtained from each treatment site and fixed in 10% buffered formalin. Tissue samples then embedded in paraffin, sectioned (5 μm thickness), and stained for skin markers after re-hydration. […] Retinol at a active concentration of 0.05% was used as a positive control. Retinol use at a 0.05% active concentration in the semi-occlusion patch vehicle formulation yielded a visual score of approximately 0.56 out of a 4 point scale in HE staining (measuring hematoxylin and eosin staining, an indication of viable epidermal thickness and health) with 63.6% of the subjects showing an improvement; a visual score of 0.6 out of a 4 point scale in M-TC staining (Masson's trichrome staining, assessing total mature fiber-forming collagen in the dermis—mainly Collagen I, […] and Collagen V) with 51.6% of the subjects showing an improvement; a visual score of 0.52 out of a 4 point scale for pro-Col (measuring new synthesis of Collagen I by skin fibroblasts in the dermis) with 51.6% of the subjects showing an improvement; and a visual score of 0.57 out of a 4 point scale for HA (measuring level of hyaluronic acid in both dermis and epidermis) with 50% of the subjects showing an improvement.",
  "data": [
    {"smiles": "CC1=C(/C=C/C(C)=C/C=C/C(C)=C/CO)C(C)(C)CCC1", "note": "[Retinol]", "values": [
      {"measurement": "subjects showing an improvement, HA", "result": "50 % of the subjects"},
      {"measurement": "subjects showing an improvement, HE staining", "result": "63.6 % of the subjects"},
      {"measurement": "subjects showing an improvement, M-TC staining", "result": "51.6 % of the subjects"},
      {"measurement": "subjects showing an improvement, pro-Col", "result": "51.6 % of the subjects"},
      {"measurement": "visual score for HA (hyaluronic acid in dermis and epidermis)", "setting": "out of a 4 point scale", "result": 0.57},
      {"measurement": "visual score for pro-Col (new synthesis of Collagen I)", "setting": "out of a 4 point scale", "result": 0.52},
      {"measurement": "visual score in HE staining (viable epidermal thickness and health)", "setting": "out of a 4 point scale", "result": "approximately 0.56"},
      {"measurement": "visual score in M-TC staining (total mature fiber-forming collagen in the dermis)", "setting": "out of a 4 point scale", "result": 0.6}
    ]}
  ]
}
